Data published in patent US7122675B2, “Gamma secretase inhibitors” (Schering Corporation, priority 2001, dated 2006).
pIC50: −log10 of the molar value.

target: T1, Gamma secretase (Homo sapiens, UniProt P49768); experiment: Gamma secretase activity assay (membranes of C99-expressing 293 cells, Aβ 40/Aβ 42 ECL immunoassay); assay type: biochemical; settings: membranes incubated at 37 C for 1 h; Aβ 40 and Aβ 42 measured by ECL immunoassay; read-out: IC50 (concentration of compound producing 50% inhibition of enzyme activity)
T1 construct: endogenous in cells; host or cells: 293 cells (T-REx, clone pTRE.15), salt-washed membrane preparation; only the substrate SPC99-Lon is transfected
Method: Gamma secretase activity was determined as described by Zhang et a. (Biochemistry, 40 (16), 5049-5055, 2001). Activity is expressed either as a percent inhibition or as the concentration of compound producing 50% inhibition of enzyme activity.
Reagents. Antibodies W02, G2-10, and G2-11 were obtained from Dr. Konrad Beyreuther (University of Heidelberg, Heidelberg, Germany). W02 recognizes residues 5-8 of A peptide, while G2-10 and G2-11 recognize the specific C-terminal structure of A 40 and A 42, respectively. Biotin-4G8 was purchased from Senetec (St. Louis, Mo.). All tissue culture reagents used in this work were from Life Technologies, Inc., unless otherwise specified. Pepstatin A was purchased from Roche Molecular Biochemicals; DFK167 was from Enzyme Systems Products (Livermore, Calif.).
cDNA Constructs, Tissue Culture, and Cell Line Construction. The construct SPC99-Lon, which contains the first 18 residues and the C-terminal 99 amino acids of APP carrying the London mutation, has been described (Zhang, L., Song, L., and Parker, E. (1999) J. Biol. Chem. 274, 8966-8972). Upon insertion into the membrane, the 17 amino acid signal peptide is processed, leaving an additional leucine at the N-terminus of A. SPC99-Ion was cloned into the pcDNA4/TO vector (Invitrogen) and transfected into 293 cells stably transfected with pcDNA6/TR, which is provided in the T-REx system (Invitrogen). The transfected cells were selected in Dulbecco's modified Eagle's media (DMEM) supplemented with 10% fetal bovine serum, 100 units/mL penicillin, 100 µg/mL streptomycin, 250 µg/mL zeocin, and 5 µg/mL blasticidin (Invitrogen). Colonies were screened for A production by inducing C99 expression with […] tetracycline for 16-20 h and analyzing conditioned media with a sandwich immunoassay (see below). One of the clones, designated as pTRE.15, was used in these studies.
Membrane Preparation. C99 expression in cells was induced with […] tetracycline for 20 h. The cells were pretreated with […] 12-myristate 13-acetate (PMA) and […] brefeldin A (BFA) for 5-6 h at 37 C before harvesting. The cells were washed 3 times with cold phosphate-buffered saline (PBS) and harvested in buffer A containing 20 mM Hepes (pH 7.5), 250 mM sucrose, 50 mM KCl, 2 mM EDTA, 2 mM EGTA, and Complete protease inhibitor tablets (Roche Molecular Biochemicals). The cell pellets were flash-frozen in liquid nitrogen and stored at −70 C. before use.
To make membranes, the cells were resuspended in buffer A and lysed in a nitrogen bomb at 600 psi. The cell lysate was centrifuged at 1500 g for 10 min to remove nuclei and large cell debris. The supernatant was centrifuged at 100000 g for 1 h. The membrane pellet was resuspended in buffer A plus 0.5 M NaCl, and the membranes were collected by centrifugation at 200000 g for 1 h. The salt-washed membrane pellet was washed again in buffer A and centrifuged at 100000 g for 1 h. The final membrane pellet was resuspended in a small volume of buffer A using a Teflon-glass homogenizer. The protein concentration was determined, and membrane aliquots were flash-frozen in liquid nitrogen and stored at −70 C.
-Secretase Reaction and A Analysis. To measure -secretase activity, membranes were incubated at 37 C for 1 h in 50 L of buffer containing 20 mM Hepes (pH 7.0) and 2 mM EDTA. At the end of the incubation, Aβ 40 and Aβ 42 were measured using an electrochemiluminescence (ECL)-based immunoassay. Aβ 40 was identified with antibody pairs TAG-G2-10 and biotin-W02, while A 42 was identified with TAG-G2-11 and biotin-4G8. The ECL signal was measured using an ECL-M8 instrument (IGEN International, Inc.) according to the manufacturer's instructions. The data presented were the means of the duplicate or triplicate measurements in each experiment. The characteristics of -secretase activity described were confirmed using more than five independent membrane preparations.

pIC50, 6.46 to 7.55:
O=C(N1CCCC(N(c2cc(F)ccc2F)S(=O)(=O)c2ccc(Cl)cc2)C1)N1CCCCC1CO (centres unmarked) [Example 192], COC(=O)c1ccc(CN(C2CCCN(C(=O)Cc3cc(F)cc(F)c3)C2)S(=O)(=O)c2ccc(C(F)(F)F)cc2)cc1 (centres unmarked) [Example 79], O=C(N1CCN(CCOCCO)CC1)N1CCCC(N(c2cc(F)ccc2F)S(=O)(=O)c2ccc(Cl)cc2)C1 (centres unmarked) [Example 181], CN1CCN(C(=O)N2CCCC(N(c3cc(F)ccc3F)S(=O)(=O)c3ccc(Cl)cc3)C2)CC1 (centres unmarked) [Example 180], CC1COCC(C)N1C(=O)N1CCCC(N(c2cc(F)ccc2F)S(=O)(=O)c2ccc(Cl)cc2)C1 (centres unmarked) [Example 161], COC(=O)c1ccc(CN(C2CCCN(C(=O)OC(C)(C)C)C2)S(=O)(=O)c2ccc(C#N)cc2)cc1 (centres unmarked) [Example 18], C[C@@H]1CN(C(=O)OC(C)(C)C)CCN1C(=O)N1CCC[C@H](N(c2cc(F)ccc2F)S(=O)(=O)c2ccc(Cl)cc2)C1 [Example 214], COC(=O)c1ccc(CN(C2CCCN(C(=O)C(C)C)C2)S(=O)(=O)c2ccc(OC)cc2)cc1 (centres unmarked) [Example 68], COC(=O)c1ccc(CN(C2CCCN(C(=O)OC(C)(C)C)C2)S(=O)(=O)c2ccc(C(F)(F)F)cc2)cc1 (centres unmarked) [Example 14], COC(=O)c1ccc(CN(C2CCCN(C(=O)OC(C)(C)C)C2)S(=O)(=O)c2ccc([N+](=O)[O-])cc2)cc1 (centres unmarked) [Example 17], COC(=O)c1ccc(CN(C2CCCN(C(=O)Cc3cccnc3)C2)S(=O)(=O)c2ccc(Cl)cc2)cc1 (centres unmarked) [Example 56], CN(C)CC1CCCCN1C(=O)N1CCC[C@H](N(c2cc(F)ccc2F)S(=O)(=O)c2ccc(Cl)cc2)C1 (some centres unmarked) [Example 213], COC(=O)c1ccc(CN(C2CCCN(C(=O)OC(C)(C)C)C2)S(=O)(=O)c2ccc(-c3ccccc3)cc2)cc1 (centres unmarked) [Example 20], COC(=O)c1ccc(CN(C2CCCN(C(=O)OC(C)(C)C)C2)S(=O)(=O)c2ccc(OC(F)(F)F)cc2)cc1 (centres unmarked) [Example 16], COC(=O)c1ccc(CN(C2CCCN(C(=O)Cc3ccccc3)C2)S(=O)(=O)c2ccc(Cl)cc2)cc1 (centres unmarked) [Example 62], O=C(N1CCN(CCO)CC1)N1CCCC(N(c2cc(F)ccc2F)S(=O)(=O)c2ccc(Cl)cc2)C1 (centres unmarked) [Example 182], CC1CCCCN1C(=O)N1CCCC(N(c2cc(F)ccc2F)S(=O)(=O)c2ccc(Cl)cc2)C1 (centres unmarked) [Example 162]
